The text below walks through data of article PMC3183052, “Immunoprotectivity of HLA-A2 CTL Peptides Derived from Respiratory Syncytial Virus Fusion Protein in HLA-A2 Transgenic Mouse” (PLoS ONE, 2011).

Experiment [1] has as its system splenocytes from HLA-A*0201 transgenic C57BL/6 mice. Briefly: IFN-γ ELISPOT of splenocytes restimulated with peptide. It counts as cell-based, mouse. The settings on record: for IFN-γ ELISPOT, RSV: splenocytes of HLA-Tg B6 mice primed and boosted i.n. with 10^4 pfu RSV-B1; for IFN-γ ELISPOT, RSV / IFN-γ ELISPOT, rAd-F0: restimulated with 2 µg peptide, representative of two experiments, five mice per group; for IFN-γ ELISPOT, rAd-F0: splenocytes of HLA-Tg B6 mice primed and boosted i.n. with 10^7 pfu rAd-F0; for IFN-γ level in restimulated splenocytes (ELISPOT, text grading): splenocytes of rAd-F0- or RSV B1-primed and boosted HLA-Tg B6 mice, high = over 100 spots, moderate = over 50 spots. On the procedure: (§1) To screen the immunodominance of epitopic peptide in the induction of RSV-F specific Th1/Th2 expression, HLA-A*0201 transgenic C57BL/6 mice were anesthetized with isoflurane and immunized with 1×10^7 pfu/50 µL of rAd-F0 or rAd-LacZ or 1×10^4 live RSV B1 via the intranasal (i.n.) route. Twenty days later, the mice were given booster immunization i.n. with the same dose. After 10 days of boost, mice were sacrificed and splenocytes were isolated for the cytokine ELISPOT assay. For peptide-based vaccination, transgenic mice were immunized subcutaneously (s.c.) with 50 µg of the individual synthetic peptides emulsified in 25 µL of incomplete Freund's adjuvant (IFA) (Sigma-Aldrich) and then boosted after 10 days s.c. with the same dose of the respective peptides mixed with IFA. Mice were sacrificed 7 days after the booster and splenocytes were isolated for in vitro peptide-restimulation. For challenge studies, 10^7 pfu of live RSV-B1 was administered i.n. seven days after the booster immunization with peptide vaccines. Mice were sacrificed on day 4 post-challenge and the lung tissues were collected and subjected to further analysis by flow cytometry, ELISA, CTL assay and immunohistochemistry. Mice body weight was monitored daily.
(§2) […] RBC-free splenocyte suspensions prepared from the individual mice were seeded in individual wells of 96-well filtration plates (Millipore) precoated with capturing monoclonal antibodies for murine IL-2, IL-4 or IFN-γ (0.5 µg/ well) (eBioscience) and blocked with conditioned medium (CM) for 1 hour at room temperature. The splenocytes were added with the individual RSV F 9-mer synthetic peptides (2 µg each) or GLC-9 dissolved in CM (100 µL). The splenocytes added with Con A (10 µg/mL) were used as positive control. Unstimulated splenocytes were used as negative control. The plates were kept in a 37°C incubator equilibrated with 5% CO2 for 48 hours. The individual wells of the ELISPOT plates were washed three times with washing buffer (0.05% tween20 in PBS, PBS-T), and then 0.2 µg of the corresponding biotinylated detection monoclonal antibodies specific for IL-2, IL-4 and IFN-γ were added to detect the respective cytokines. After 2 hours of incubation at room temperature, the plates were washed and 100 µl of streptavidin-alkaline phosphatase (1∶ 250 dilution) was added to the individual wells, and the plates were incubated at room temperature for 45 minutes. Finally, the plates were washed four times with the wash buffer, and 100 µl of AEC (3-amine-9-ethylcarbazole, Sigma-Aldrich) substrate was added to each well and allowed to react for 30 minutes at room temperature in the dark. The plates were then washed with water, air-dried overnight, and the spots per well were scored using the immunospot counting reader (C.T.L. IMMUNOSPOT, CELLULAR TECHNOLOGY LTD). Results were expressed as the number of cytokine-secreting cells per 5×10^5 splenocytes seeded in the initial culture.
(§3) Figure 1 Induction of IFN-γ and IL-2 in splenocytes from RSV F peptide immunized HLA-A*0201 transgenic mice upon secondary recall. Splenocytes harvested on day 30 from HLA-A-Tg B6 mice primed and boosted at 20 days interval intranasally with 10^7 pfu of rAd-F0 (□) or 10^4 pfu of RSV-B1 (▪)were restimulated with 2 µg of the individual RSV F peptide or 10 µg/ml Con A for 5 days in the presence of murine IL-2 . After stimulation, 5×10^5 splenocytes were seeded to anti-IFN-γ (A) or anti-IL-2 (B) capture antibody coated ELISPOT plates for 2 days for ELISPOT assay as described in Materials and Methods. Cytokine-positive immunospots were developed and the results are expressed as the number of immunospots +/−2 standard deviations for each experimental group. Data is representative of results derived from two independent experiments, each with five mice per group.

A further experiment addresses T1, HLA-A*0201 (Homo sapiens, UniProt P04439, D140Y/D185E/D98H/E176V/E277Q/G131W/G231S/I119V/I121R/I166T/I218V/L300P/L318F/N151K/N90K/P208A/P217A/Q86G/Q94H/R138H/R169H/T345S).
T1 construct: Human T2 cells (purchased from the American Type Culture Collection, ATCC) (ATCC No. CRL-1992) expressing the HLA-A*0201 gene; endogenous in cells; host or cells: human T2 cells (ATCC CRL-1992)
Nature of the experiment: T2 cell-stabilization assay (T2-binding). The settings on record: for T2-binding Ratio of MFI: T2 cells 5×10^5, peptide 50 µg/mL + β2-microglobulin 5 µg/mL, 28°C 16–18 h, then brefeldin A 10 µg/mL 37°C 3 h, FITC anti-HLA-A2, flow cytometry, MFI relative to negative control HCV C55-74 (set as 1); for binding affinity, MFI higher than the baseline: T2 cell-based binding assay, baseline = negative control HCV C55-74, called modest binding affinity. On the procedure: T2 cells (5×10^5) cultured in 96-well U-bottom plates were incubated with the individual 9-mer synthetic peptides (50 µg/mL) and β2-microglobulin (5 µg/mL; Sigma-Aldrich) at 28°C for 16–18 hours. Subsequently, brefeldin A (10 µg/mL) was added and the cells were incubated at 37°C for another 3 hours, then washed and stained with fluorescence isothiocyanate (FITC)-conjugated mouse anti-human HLA-A2 antibody (SeroTec). Peptide-loaded T2 cells were acquired and analyzed on the FACScan flow cytometer using CellQuest software (Becton Dickinson). GLC-9 peptide was used as positive control (PC). The mean fluorescence intensity (MFI) represents the binding affinity of each peptide compared to MFI (set as MFI = 1) obtained from negative control (NC), which is T2 cells loaded with HCV peptide C55-74.
Twenty-five 9-mer synthetic peptides derived from the RSV F glycoprotein sequence presumed to encompass HLA-A*0201 binding motifs were synthesized (Table 1). Each was tested for its ability to bind HLA-A*0201 molecules by T2 cell-based binding assay (data not shown). The relative mean fluorescence intensity (MFI) obtained from the positive control (PC) peptide derived from Epstein-Barr virus capsid protein (GLC-9, a previously defined HLA-A*0201-restricted CTL epitope) was twofold (MFI = 1.96) compared to the baseline MFI = 1 obtained from the negative control (NC) treated with an unrelated peptide HCV C55-74 (a C57BL/6-specific CD4 epitope). […] The remaining peptides had no detectable binding to the HLA-A*0201 molecules. Apparently, the different MFIs generated by binding of RSV F-derived peptides to HLA-A*0201 reflects on the binding specificity of different peptides to a given HLA molecule.

Experiment [2] relates to splenocytes from HLA-A*0201 transgenic C57BL/6 mice. Briefly: IL-2 ELISPOT of splenocytes restimulated with peptide. The settings on record: for IL-2 ELISPOT, RSV: splenocytes of HLA-Tg B6 mice primed and boosted i.n. with 10^4 pfu RSV-B1; for IL-2 ELISPOT, RSV / IL-2 ELISPOT, rAd-F0: restimulated with 2 µg peptide, representative of two experiments, five mice per group; for IL-2 ELISPOT, rAd-F0: splenocytes of HLA-Tg B6 mice primed and boosted i.n. with 10^7 pfu rAd-F0; for IL-2 level in restimulated splenocytes (ELISPOT, text grading): splenocytes of rAd-F0- or RSV B1-primed and boosted HLA-Tg B6 mice, high = over 100 spots, moderate = over 50 spots. It counts as cell-based, mouse. On the procedure: as §1, §2, §3

On to “5: HLA-A*0201-restricted 9-mer synthetic peptide from F protein of RSV-B1 strain (FMNYTLNNT) [compound 5]”, for which, in experiment [1], the “IFN-γ ELISPOT, RSV” value is listed as 12.5 cytokine-secreting cells per 5×10^5 splenocytes; the “IFN-γ ELISPOT, rAd-F0” value is given as 73 cytokine-secreting cells per 5×10^5 splenocytes; the “IFN-γ level in restimulated splenocytes (ELISPOT, text grading)” value (shortened to “IFN-γ level in restimulated splenocytes”) was “over 50 spots”. The “T2-binding Ratio of MFI” value in the experiment with HLA-A*0201 is 0.96. Moreover, in experiment [2], the “IL-2 ELISPOT, RSV” value was 58.5 cytokine-secreting cells per 5×10^5 splenocytes; the “IL-2 ELISPOT, rAd-F0” value is listed as 38 cytokine-secreting cells per 5×10^5 splenocytes; the “IL-2 level in restimulated splenocytes (ELISPOT, text grading)” value (“IL-2 level in restimulated splenocytes” below) is given as “over 50 spots”.

Consider “20: HLA-A*0201-restricted 9-mer synthetic peptide from F protein of RSV-B1 strain (IMITTIIIV) [compound 20]”, for which, in experiment [1], the “IFN-γ ELISPOT, RSV” value was 9 cytokine-secreting cells per 5×10^5 splenocytes; the “IFN-γ ELISPOT, rAd-F0” value is given as 200 cytokine-secreting cells per 5×10^5 splenocytes; the “IFN-γ level in restimulated splenocytes” value was “over 100 spots”. Further, the “T2-binding Ratio of MFI” value with HLA-A*0201 is listed as 1.03. In experiment [2], the “IL-2 ELISPOT, RSV” value is 24.5 cytokine-secreting cells per 5×10^5 splenocytes and the “IL-2 ELISPOT, rAd-F0” value is given as 32 cytokine-secreting cells per 5×10^5 splenocytes.

As to “21: HLA-A*0201-restricted 9-mer synthetic peptide from F protein of RSV-B1 strain (IIIVIIVIL) [compound 21]”, in experiment [1], the “IFN-γ ELISPOT, RSV” value is given as 80 cytokine-secreting cells per 5×10^5 splenocytes; the “IFN-γ ELISPOT, rAd-F0” value is on record as 16.5 cytokine-secreting cells per 5×10^5 splenocytes; the “IFN-γ level in restimulated splenocytes” value was “over 50 spots”. Also, the “T2-binding Ratio of MFI” value with HLA-A*0201 came to 0.88. In addition, in experiment [2], the “IL-2 ELISPOT, RSV” value is listed as 21 cytokine-secreting cells per 5×10^5 splenocytes and the “IL-2 ELISPOT, rAd-F0” value is reported as 2.5 cytokine-secreting cells per 5×10^5 splenocytes.

Take “4: HLA-A*0201-restricted 9-mer synthetic peptide from F protein of RSV-B1 strain (ELDKYKNAV) [compound 4]”: in experiment [1], the “IFN-γ ELISPOT, RSV” value is listed as 34.5 cytokine-secreting cells per 5×10^5 splenocytes; the “IFN-γ ELISPOT, rAd-F0” value is given as 88.5 cytokine-secreting cells per 5×10^5 splenocytes; the “IFN-γ level in restimulated splenocytes” value is reported as “over 50 spots”. In addition, the “T2-binding Ratio of MFI” value with HLA-A*0201 worked out at 0.94. Further, in experiment [2], the “IL-2 ELISPOT, RSV” value is 51.5 cytokine-secreting cells per 5×10^5 splenocytes; the “IL-2 ELISPOT, rAd-F0” value is 49.5 cytokine-secreting cells per 5×10^5 splenocytes; the “IL-2 level in restimulated splenocytes” value is given as “over 50 spots”.

As for “7: HLA-A*0201-restricted 9-mer synthetic peptide from F protein of RSV-B1 strain (HLEGEVNKI) [compound 7]”, in experiment [1], the “IFN-γ ELISPOT, RSV” value is listed as 81 cytokine-secreting cells per 5×10^5 splenocytes; the “IFN-γ ELISPOT, rAd-F0” value is reported as 68.5 cytokine-secreting cells per 5×10^5 splenocytes; the “IFN-γ level in restimulated splenocytes” value is on record as “over 50 spots”. Besides, the “T2-binding Ratio of MFI” value with HLA-A*0201 stood at 0.83. In experiment [2], the “IL-2 ELISPOT, RSV” value is 33 cytokine-secreting cells per 5×10^5 splenocytes; the “IL-2 ELISPOT, rAd-F0” value is on record as 68 cytokine-secreting cells per 5×10^5 splenocytes; the “IL-2 level in restimulated splenocytes” value is reported as “over 50 spots”.

For the substance “8: HLA-A*0201-restricted 9-mer synthetic peptide from F protein of RSV-B1 strain (ALLSTNKAV) [compound 8]”, in experiment [1], the “IFN-γ ELISPOT, RSV” value is 86 cytokine-secreting cells per 5×10^5 splenocytes; the “IFN-γ ELISPOT, rAd-F0” value is 36 cytokine-secreting cells per 5×10^5 splenocytes; the “IFN-γ level in restimulated splenocytes” value is reported as “over 50 spots”. Besides, in the experiment with HLA-A*0201, the “binding affinity, MFI higher than the baseline” value is about 10% and the “T2-binding Ratio of MFI” value is listed as 1.50. Moreover, in experiment [2], the “IL-2 ELISPOT, RSV” value is 43 cytokine-secreting cells per 5×10^5 splenocytes and the “IL-2 ELISPOT, rAd-F0” value is given as 8.5 cytokine-secreting cells per 5×10^5 splenocytes.

On to “11: HLA-A*0201-restricted 9-mer synthetic peptide from F protein of RSV-B1 strain (SLSNGVSVL) [compound 11]”, for which, in experiment [1], the “IFN-γ ELISPOT, RSV” value is 200 cytokine-secreting cells per 5×10^5 splenocytes; the “IFN-γ ELISPOT, rAd-F0” value is on record as 68.5 cytokine-secreting cells per 5×10^5 splenocytes; the “IFN-γ level in restimulated splenocytes” value is on record as “over 100 spots”. For the same substance, the “T2-binding Ratio of MFI” value with HLA-A*0201 was 1.06. In experiment [2], the “IL-2 ELISPOT, RSV” value is 56.5 cytokine-secreting cells per 5×10^5 splenocytes; the “IL-2 ELISPOT, rAd-F0” value is recorded as 51.5 cytokine-secreting cells per 5×10^5 splenocytes; the “IL-2 level in restimulated splenocytes” value is given as “over 50 spots”.

For “TLLLWVLLL [peptide 1, HLA-A*0201-restricted 9-mer synthetic peptide from F protein of RSV-B1 strain]”, in experiment [1], the “IFN-γ ELISPOT, RSV” value is recorded as 69.5 cytokine-secreting cells per 5×10^5 splenocytes; the “IFN-γ ELISPOT, rAd-F0” value was 33.5 cytokine-secreting cells per 5×10^5 splenocytes; the “IFN-γ level in restimulated splenocytes” value is “over 50 spots”. Further, on HLA-A*0201, the “binding affinity, MFI higher than the baseline” value was about 10% and the “T2-binding Ratio of MFI” value was 1.19. Also, in experiment [2], the “IL-2 ELISPOT, RSV” value is listed as 39.5 cytokine-secreting cells per 5×10^5 splenocytes; the “IL-2 ELISPOT, rAd-F0” value was 85.5 cytokine-secreting cells per 5×10^5 splenocytes; the “IL-2 level in restimulated splenocytes” value is on record as “over 50 spots”.
